Assay results from patent publication US11186564B2, “Dual NAV1.2/5HT2a inhibitors for treating CNS disorders” (Sunovion Pharmaceuticals Inc., priority 2016, dated 2021).
Read-outs that look alike come from different tables or passages of the source.

Tests used:
[1] = target: human sodium channel NaV1.2 (Homo sapiens, UniProt Q99250); assay: NaV1.2 inhibition, automated patch-clamp (Q-Patch HTX), slow inactivated state (state C); format: cell-based; settings: for inhibition at 1 µM: 1 μM compound, read-out: NaV1.2 (% inh), 1 μM; for IC50: read-out: NaV1.2 IC50; for inhibition at 10 µM: read-out: NaV1.2 (% inh), 10 μM
Sequence of human sodium channel NaV1.2 (Q99250 whole entry): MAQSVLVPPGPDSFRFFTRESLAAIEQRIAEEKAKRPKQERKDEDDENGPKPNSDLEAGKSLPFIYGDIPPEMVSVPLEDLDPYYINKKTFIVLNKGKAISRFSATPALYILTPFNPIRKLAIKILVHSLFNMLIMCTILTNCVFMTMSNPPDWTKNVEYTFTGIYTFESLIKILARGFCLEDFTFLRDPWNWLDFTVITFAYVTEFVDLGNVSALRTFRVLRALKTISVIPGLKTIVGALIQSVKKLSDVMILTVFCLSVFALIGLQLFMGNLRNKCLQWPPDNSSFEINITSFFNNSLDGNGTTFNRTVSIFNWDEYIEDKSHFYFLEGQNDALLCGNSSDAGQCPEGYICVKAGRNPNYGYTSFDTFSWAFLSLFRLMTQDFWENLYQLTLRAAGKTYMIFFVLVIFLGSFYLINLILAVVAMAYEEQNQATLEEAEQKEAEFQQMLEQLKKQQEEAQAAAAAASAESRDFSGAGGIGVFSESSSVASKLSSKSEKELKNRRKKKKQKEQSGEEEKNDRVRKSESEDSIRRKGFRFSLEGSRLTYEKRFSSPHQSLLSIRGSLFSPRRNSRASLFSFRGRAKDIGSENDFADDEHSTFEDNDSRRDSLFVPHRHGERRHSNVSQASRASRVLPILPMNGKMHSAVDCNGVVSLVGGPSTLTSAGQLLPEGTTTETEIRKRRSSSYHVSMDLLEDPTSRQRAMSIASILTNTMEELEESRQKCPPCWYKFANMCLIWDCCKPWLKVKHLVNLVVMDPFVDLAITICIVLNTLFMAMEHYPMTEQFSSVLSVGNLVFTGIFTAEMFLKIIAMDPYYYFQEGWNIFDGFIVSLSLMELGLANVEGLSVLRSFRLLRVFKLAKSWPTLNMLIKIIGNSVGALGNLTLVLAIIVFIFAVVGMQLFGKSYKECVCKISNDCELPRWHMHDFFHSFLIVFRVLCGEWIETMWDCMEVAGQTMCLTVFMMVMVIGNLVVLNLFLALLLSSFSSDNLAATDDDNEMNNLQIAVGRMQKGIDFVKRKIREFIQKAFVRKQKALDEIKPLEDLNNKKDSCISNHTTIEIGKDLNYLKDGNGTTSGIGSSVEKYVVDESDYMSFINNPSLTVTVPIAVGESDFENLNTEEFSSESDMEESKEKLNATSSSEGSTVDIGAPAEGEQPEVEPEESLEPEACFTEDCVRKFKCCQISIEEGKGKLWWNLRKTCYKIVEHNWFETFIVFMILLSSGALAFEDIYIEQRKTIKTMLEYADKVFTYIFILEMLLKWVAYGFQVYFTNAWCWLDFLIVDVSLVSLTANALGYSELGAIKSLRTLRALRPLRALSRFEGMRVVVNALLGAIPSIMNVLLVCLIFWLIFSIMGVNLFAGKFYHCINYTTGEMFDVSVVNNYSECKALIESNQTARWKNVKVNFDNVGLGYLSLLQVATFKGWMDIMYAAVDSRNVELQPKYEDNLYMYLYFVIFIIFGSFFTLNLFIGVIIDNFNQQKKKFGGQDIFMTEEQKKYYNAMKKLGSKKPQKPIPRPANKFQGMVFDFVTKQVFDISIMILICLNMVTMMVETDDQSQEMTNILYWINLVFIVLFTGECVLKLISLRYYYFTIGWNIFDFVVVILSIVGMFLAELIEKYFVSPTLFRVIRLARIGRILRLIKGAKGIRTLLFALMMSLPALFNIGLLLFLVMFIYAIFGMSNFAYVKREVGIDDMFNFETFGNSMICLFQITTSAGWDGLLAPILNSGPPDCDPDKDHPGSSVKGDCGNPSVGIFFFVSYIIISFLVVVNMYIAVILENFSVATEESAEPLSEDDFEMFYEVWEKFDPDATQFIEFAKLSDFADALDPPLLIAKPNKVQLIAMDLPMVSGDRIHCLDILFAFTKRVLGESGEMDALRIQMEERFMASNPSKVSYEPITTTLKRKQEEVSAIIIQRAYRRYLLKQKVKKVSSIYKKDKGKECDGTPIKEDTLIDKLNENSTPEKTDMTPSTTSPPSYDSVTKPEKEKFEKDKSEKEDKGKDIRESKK
How it was run: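 CHO K-1 cells stably expressing human NaV1.2, whole-cell automated patch clamp, holding −100 mV; slow-inactivated state (state C) read at a 5 ms step to 0 mV after 10 s at −50 mV and 15 ms at −90 mV. Percent inhibition vs vehicle; IC50 by nonlinear least-squares fit.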

[2] = target: T1, recombinant human serotonin receptor 5-HT2A (Homo sapiens, UniProt P28223); assay: 5-HT2A antagonist Ca2+ assay in CHO-K1 cells (method A aequorin luminescence / method B FLIPR fluorescence); format: cell-based; settings: antagonist mode vs EC80 of reference agonist, method A or B
T1 construct: expressed in transfected cells; method B: loaded with Ca2+ dye
T1 sequence (P28223 whole entry): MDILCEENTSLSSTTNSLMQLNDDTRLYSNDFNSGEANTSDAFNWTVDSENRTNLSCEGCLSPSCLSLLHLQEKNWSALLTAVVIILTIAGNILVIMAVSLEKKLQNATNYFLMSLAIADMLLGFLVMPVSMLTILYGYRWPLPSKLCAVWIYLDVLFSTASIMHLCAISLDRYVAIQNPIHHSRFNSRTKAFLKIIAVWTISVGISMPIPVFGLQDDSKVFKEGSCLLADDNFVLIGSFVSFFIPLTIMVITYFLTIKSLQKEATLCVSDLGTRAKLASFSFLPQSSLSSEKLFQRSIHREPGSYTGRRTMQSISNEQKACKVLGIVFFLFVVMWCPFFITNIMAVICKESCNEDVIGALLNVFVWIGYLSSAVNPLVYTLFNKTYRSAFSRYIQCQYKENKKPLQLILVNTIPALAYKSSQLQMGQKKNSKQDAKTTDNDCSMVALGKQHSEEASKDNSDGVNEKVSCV
How it was run: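 Method A: CHO-K1 cells co-expressing human 5-HT2A and mitochondrial apoaequorin were given reference agonist at EC80 15 min after compound, with luminescence read. Method B: dye-loaded 5-HT2A CHO-K1 cells were pretreated with compound, then given serotonin at EC80, with FLIPR fluorescence read. IC50s came from nonlinear fits of percent inhibition.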

[3] = hNaV1.2 CHO cells, slow inactivated state
[4] = 10 μM compound, hNaV1.2 CHO cells, slow inactivated state

Compound | inhibition at 1 µM [1, 3] | IC50 ([2]; read-out: 5HT2A IC50) | IC50 [1, 3] | further results
Fc1ccc(OC2CCN(CCC3COc4cccnc43)CC2)cc1 (stereo not drawn) [Example 177, 3-(2-(4-(4-fluorophenoxy)piperidin-1-yl)ethyl)-2,3-dihydrofuro[3,2-b] pyridine] | 34% | 0.01 µM | – | –
Fc1ccc(OC2CCN(CCC3CCc4ncccc43)CC2)cc1 (stereo not drawn) [Example 172, 5-(2-(4-(4-fluorophenoxy)piperidin-1-yl)ethyl)-6,7-dihydro-5H-cyclopenta[b]pyridine] | 34% | 0.12 µM | – | –
COc1ccccc1N1CCC2(CCN(CC3CCc4ccccc43)C2)C1 (stereo not drawn) [Example 335, 2-((2,3-dihydro-1H-inden-1-yl)methyl)-7-(2-methoxyphenyl)-2,7-diazaspiro[4.4]nonane] | – | 0.04 µM | 120 nM | –
O=C(CN1CCC(Oc2ccccc2)CC1)c1ccccc1 [Example 216, 2-(4-phenoxypiperidin-1-yl)-1-phenylethan-1-one] | 34% | 0.15 µM | – | –
CO[C@H](CCN1CCC(Oc2ccccc2)CC1)c1ccccc1 [Example 229, (R)-1-(3-methoxy-3-phenylpropyl)-4-phenoxypiperidine] | – | 0.03 µM | 1080 nM | –
Fc1ccc(OC2COC3(C2)CN(CC2CCc4ccccc42)C3)cc1 (stereo not drawn) [Example 368, 2-((2,3-dihydro-1H-inden-1-yl)methyl)-7-(4-fluorophenoxy)-5-oxa-2-azaspiro[3.4]octane] | – | 0.15 µM | 380 nM | –
Fc1ccc(OC2COCCN(CC3CCc4ccccc43)C2)cc1 (stereo not drawn) [Example 276, 4-((2,3-dihydro-1H-inden-1-yl)methyl)-6-(4-fluorophenoxy)-1,4-oxazepane] | – | 0.4 µM | 440 nM | –
COc1ccccc1OC1CCN(CC2Cc3cccnc3C2)CC1 (stereo not drawn) [Example 139, 6-((4-(2-methoxyphenoxy)piperidin-1-yl)methyl)-6,7-dihydro-5H-cyclopenta[b]pyridine] | -10% | 0.18 µM | – | –
Fc1ccc(OC2CCN(CCC3COCc4ccccc43)CC2)cc1 (stereo not drawn) [Example 184, 4-(4-fluorophenoxy)-1-(2-(isochroman-4-yl)ethyl)piperidine] | 35% | 0.08 µM | – | –
Fc1ccc(OC2CCN(CCC3CCCOC3)CC2)cc1 (stereo not drawn) [Example 169, 4-(4-fluorophenoxy)-1-(2-(tetrahydro-2H-pyran-3-yl)ethyl)piperidine] | 10% | 0.28 µM | – | –
OC(COC1CCCCC1)CN1CCC2(CC1)OCc1ccccc12 (stereo not drawn) [Example 393, 1′-(cyclohexyloxy)-3-(3H-spiro[isobenzofuran-1,4′-piperidin]-1′-yl)propan-2-ol] | – | – | – | inhibition at 10 µM ([1]; CHO): 93%; IC50 ([2]; 5HT2A IC50, μM): 1.8 µM
CN1CCN(CC2CCc3ccccc32)CC(Oc2ccc(F)cc2)C1 (stereo not drawn) [Example 277, 1-((2,3-dihydro-1H-inden-1-yl)methyl)-6-(4-fluorophenoxy)-4-methyl-1,4-diazepane] | 31% | 0.1 µM | – | –
COc1ccccc1OC1CCN(CC2c3ccccc3OC2(C)C)CC1 (stereo not drawn) [Example 129, 1-((2,2-dimethyl-2,3-dihydrobenzofuran-3-yl)methyl)-4-(2-methoxyphenoxy)piperidine] | – | 0.4 µM | 1060 nM | –
OC(CO[C@@H]1CCc2ccccc21)CN1CC[C@H](Oc2ccc(F)cc2)C1 (stereo partly drawn) [Example 45, 1-(((R)-2,3-dihydro-1H-inden-1-yl)oxy)-3-((S)-3-(4-fluorophenoxy)pyrrolidin-1-yl)propan-2-ol] | – | 0.61 µM | – | inhibition at 10 µM [1, 4]: 85%
Fc1ccc(OC2CCN(CCC3Cc4ccccc4C3)CC2)cc1 [Example 178, 1-(2-(2,3-dihydro-1H-inden-2-yl)ethyl)-4-(4-fluorophenoxy)piperidine] | – | 0.03 µM | 1900 nM | –
COc1ccc2c(c1)C(CN1CC3CC(C1)N(c1ccccc1)C3)CC2 (stereo not drawn) [Example 328, 3-((6-methoxy-2,3-dihydro-1H-inden-1-yl)methyl)-6-phenyl-3,6-diazabicyclo[3.2.1]octane] | 31% | 5.31 µM | – | –
COc1ccccc1O[C@@H]1CCN(CCC2CCOc3ccccc32)[C@@H](C)C1 (stereo partly drawn) [Example 182, (2S,4R)-1-(2-(chroman-4-yl)ethyl)-4-(2-methoxyphenoxy)-2-methylpiperidine] | 52% | 0.2 µM | – | –
OC1(CN2CC[C@@H](Oc3ccc(F)cc3)C2)COCc2ccccc21 (stereo partly drawn) [Example 9, 4-(((R)-3-(4-fluorophenoxy)pyrrolidin-1-yl)methyl)isochroman-4-ol] | 1% | 0.6 µM | – | –
O=C1c2cc(Cl)ccc2CCCN1CCN1CCC(Oc2ccc(F)cc2)CC1 [Example 209, 8-chloro-2-(2-(4-(4-fluorophenoxy)piperidin-1-yl)ethyl)-2,3,4,5-tetrahydro-1H-benzo[c]azepin-1-one] | – | 0.02 µM | 270 nM | –
O=C1c2ccccc2CCN1CCN1CCCC(Oc2ccc(F)cc2)CC1 (stereo not drawn) [Example 274, 2-(2-(4-(4-fluorophenoxy)azepan-1-yl)ethyl)-3,4-dihydroisoquinolin-1(2H)-one] | 27% | 0.19 µM | – | –
COc1cccc(OC2CCN(CCN3CCc4ccccc4C3=O)CC2)c1 [Example 195, 2-(2-(4-(3-methoxyphenoxy)piperidin-1-yl)ethyl)-3,4-dihydroisoquinolin-1(2H)-one] | – | 0.26 µM | 1500 nM | –
N#Cc1ccc(OCCN2CCN(c3nsc4ccccc34)CC2)cc1 [Example 67, 4-(2-(4-(benzo[d]isothiazol-3-yl)piperazin-1-yl)ethoxy)benzomtnle] | – | 0.01 µM | – | inhibition at 10 µM [1, 4]: 85%
O=C1c2ccccc2CCN1CCN1C[C@H]2CC[C@@H](C1)N2c1ccccc1 [Example 297, 2-(2-((1R,5S)-8-phenyl-3,8-diazabicyclo[3.2.1]octan-3-yl)ethyl)-3,4-dihydroisoquinolin-1(2H)-one] | -4% | > 16.7 µM | – | –
COc1ccccc1OC1CCN(CC2Cc3ccccc3C2)[C@@H](C)C1 (single isomer, unassigned) [Example 147] | – | 0.07 µM | 1530 nM | –
Fc1ccc(OC2CCN(CCC3CCCCO3)CC2)cc1 (stereo not drawn) [Example 168, 4-(4-fluorophenoxy)-1-(2-(tetrahydro-2H-pyran-2-yl)ethyl)piperidine] | 2% | 0.13 µM | – | –
OC(COC1CCCCC1)CN1CCC2(CCc3ccccc3O2)CC1 (stereo not drawn) [Example 436, 1-(cyclohexyloxy)-3-(spiro[chromane-2,4′-piperidin]-1′-yl)propan-2-ol] | – | 0.02 µM | 260 nM | –
O=C1c2ccccc2CCN1CCN1CCC2(CCc3ccccc3O2)CC1 [Example 422, 2-(2-(spiro[chromane-2,4′-piperidin]-1′-yl)ethyl)-3,4-dihydroisoquinolin-1(2H)-one] | – | 0.07 µM | 400 nM | –
c1ccc([C@H]2COC3(CCN(C[C@H]4CCc5ccccc54)CC3)C2)cc1 (single isomer, unassigned) [Compound 377] | – | 0.03 µM | 790 nM | –
Fc1ccc(OC2CCN(CC3COc4ccccc43)CC2)cc1 (stereo not drawn) [Example 134, 1-((2,3-dihydrobenzofuran-3-yl)methyl)-4-(4-fluorophenoxy)piperidine] | 14% | 0.02 µM | – | –
c1ccc(OC2CCN(CCC3COCc4ccccc43)CC2)cc1 (stereo not drawn) [Example 179, 1-(2-(isochroman-4-yl)ethyl)-4-phenoxypiperidine] | – | 0.06 µM | 610 nM | –
